Assay results: US6372739B1, “Compounds and methods for modulation of estrogen receptors” (Signal Pharmaceuticals, Inc., priority 1998, dated 2002)
Counter-ions that a name gives are not always drawn. Like-named read-outs stand apart in the source and are kept apart here.

Experiments:
[1] = 3-day immature rat uterine bioassay; conditions: s.c.
IL-6 = experiment: Human bone cell co-culture system, IL-6 production; type: cell-based
Method: The generation of osteoblastic cells from normal adult femoral travecular bone from patients without evidence of metabolic bone disease was carried out as previously described (Kung Sutherland et al., Osteoporosis International 5:334-343, 1995; Wong et al., J Bone Miner 5:803-813, 1990). Bone fragments were cleaned of adherent tissue and blood and cultured for 4 weeks in medium containing Ham's F12 supplemented with 28 mM HEPES, pH 7.4, 10% FCS, 1.1 mM CaCl2, 2 mM glutamine, and 1% antibiotic-antimycotic agent. Upon confluency, the cells were harvested and immortalized using a retroviral vector (pLXSN) containing the neomycin resistance gene and the human papillomaviral (HPV18) E6 and E7 concogenes (International Journal of Oncology 6:167-174, 1995). The immortalized osteoblastic cells were selected in medium containing G418 (600 μg/ml).
The human U937 moncytic cell line (cloned from the commercially available cells by serial dilution) was maintained in RPMI 1640 medium containing 10% FCS and 1% antibiotic-antimycotic agent.
The co-culture system was established as follows. Human osteoblastic cells were plated in 96-well dishes at a density of 5×10^3 cells/well. U937 cells in RPMI medium (5×10^4 cells/well) were layered over the osteoblasts. The formation of osteoclast-like cells was induced with 100 nM PMA. […]

GM-CSF = experiment: Human bone cell co-culture system, GM-CSF production; type: cell-based; conditions: co-culture system of Example 8
Method: The co-culture system was established as follows. Human osteoblastic cells were plated in 96-well dishes at a density of 5×10^3 cells/well. U937 cells in RPMI medium (5×10^4 cells/well) were layered over the osteoblasts. The formation of osteoclast-like cells was induced with 100 nM PMA. To determine the effects of compounds or the neutralizing antibodies to IL-6 (Sigma) and GM-CSF (Pharmingen) on the formation of osteoclast-like cells, the compounds or the antibodies were added 30 minutes prior to the addition of PMA. The cultures were stopped after 96 hrs and processed for histochemical or immunohistochemical analyses.

human recombinant ER-α = biological target: T1, human recombinant ER-α (Homo sapiens, UniProt P03372); experiment: Solid phase ER binding assay (3H-estradiol competition), ER-α; conditions: HCl salt; similar to estradiol
T1 sequence (P03372 1-595): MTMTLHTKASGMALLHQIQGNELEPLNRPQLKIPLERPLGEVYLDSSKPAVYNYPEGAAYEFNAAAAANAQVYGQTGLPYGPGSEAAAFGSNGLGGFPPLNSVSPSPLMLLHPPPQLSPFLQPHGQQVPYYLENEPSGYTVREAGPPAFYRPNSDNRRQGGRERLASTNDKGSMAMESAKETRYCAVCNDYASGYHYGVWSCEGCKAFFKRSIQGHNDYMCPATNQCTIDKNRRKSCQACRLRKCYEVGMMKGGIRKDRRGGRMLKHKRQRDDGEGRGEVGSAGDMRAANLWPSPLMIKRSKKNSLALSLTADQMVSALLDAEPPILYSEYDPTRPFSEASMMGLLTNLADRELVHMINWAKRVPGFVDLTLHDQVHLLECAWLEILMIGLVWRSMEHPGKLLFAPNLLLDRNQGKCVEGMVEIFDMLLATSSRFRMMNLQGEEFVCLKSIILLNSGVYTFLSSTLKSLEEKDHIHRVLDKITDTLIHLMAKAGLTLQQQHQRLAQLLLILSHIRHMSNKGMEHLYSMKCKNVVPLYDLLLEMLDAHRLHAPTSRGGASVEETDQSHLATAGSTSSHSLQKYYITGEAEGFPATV

[2] = 28-day uterine bioassay in ovariectomized rats; conditions: rat, in vivo
Method: All three componds were administered daily by s.c. injection. Estrogen prevented the uterine weight loss caused by ovariectomy by increasing the uterine weight by 550%. […] Raloxifene.HCl caused about a 70% increase in uterine weight which has been previously reported (Grese et al., supra; Ashby et al., supra). […] Thus, this compound has significant potential for the prevention and/or treatment of cancer and osteoporosis, as well as cardiovascular diseases and neurodegenerative diseases such as Alzheimer's disease.

human recombinant ER-β = human recombinant ER-β (Homo sapiens, UniProt Q92731); experiment: Solid phase ER binding assay (3H-estradiol competition), ER-β
human recombinant ER-β, sequence (Q92731 whole entry): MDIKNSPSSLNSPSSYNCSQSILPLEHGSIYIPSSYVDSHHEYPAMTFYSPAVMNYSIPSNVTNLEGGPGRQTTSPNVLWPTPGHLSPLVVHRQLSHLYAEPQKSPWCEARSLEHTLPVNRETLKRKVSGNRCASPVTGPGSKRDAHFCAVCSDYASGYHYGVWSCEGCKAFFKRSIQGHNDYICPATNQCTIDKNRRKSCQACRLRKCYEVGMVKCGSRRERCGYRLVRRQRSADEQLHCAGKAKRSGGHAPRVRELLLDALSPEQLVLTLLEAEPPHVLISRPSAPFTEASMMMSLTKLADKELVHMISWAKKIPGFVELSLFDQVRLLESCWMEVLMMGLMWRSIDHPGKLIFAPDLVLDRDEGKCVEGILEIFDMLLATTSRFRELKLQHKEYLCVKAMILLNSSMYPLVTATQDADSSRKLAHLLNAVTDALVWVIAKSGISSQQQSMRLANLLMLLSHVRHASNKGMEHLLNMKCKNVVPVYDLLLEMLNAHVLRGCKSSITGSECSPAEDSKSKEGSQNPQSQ

O=C(c1ccc(OCCN2CCCCC2)cc1)c1c(-c2ccc(O)cc2)sc2cc(O)ccc12 [Raloxifene HCl]
shape of dose response, uterine weight [1]: bell-shaped dose response | increase in uterine weight ([1]; 1 mg/kg dose): up to 50%

C[C@]12CC[C@@H]3c4ccc(O)cc4CC[C@H]3[C@@H]1CC[C@@H]2O [Estradiol, 17β-estradiol]
effect on production of IL-6 (IL-6; co-culture system of Example 8): suppress the production of IL-6 | increase in uterine weight [1]: 4.5 fold | effect on production of GM-CSF (GM-CSF): reduced the production of GM-CSF

O=c1oc2cc(O)ccc2c(Cc2ccc(OCCN3CCCCC3)cc2)c1-c1ccccc1 (as salt: HCl) [Compound No. 1, 3-Phenyl-4-[4-(2-{piperidin-1-yl})ethoxy]-benzyl-7-hydroxycoumarin]
melting point: 160 to 161 °C

COc1ccc2c(Cc3ccc(OCCN4CCCCC4)cc3)c(-c3ccccc3)c(=O)oc2c1 [Example 4, 3-Phenyl-4-[4-(2-{piperin-1-yl})ethoxy]-benzyl-7-methoxycoumarin]
melting point: 171 to 172 °C

O=c1oc2cc(O)ccc2c(Cc2ccc(OCCN3CCCCC3)cc2)c1-c1ccccc1 [Compound No. 1, 3-Phenyl-4-[4-(2-{piperidin-1-yl})ethoxy]-benzyl-7-hydroxycoumarin]
IC50 (IL-6; U-937, human osteoblast/U937 co-culture, PMA induced, read-out: IC50 with respect to IL-6): 10 nM | binding affinity to ER-α (in words) (human recombinant ER-α): high affinity | increase in uterine weight ([2]; female, sc, 28 day): ~40% | uterine liability [2]: does not exhibit significant uterine liability | increase in uterine weight [1]: ~30% | shape of dose response, uterine weight [1]: bell-shaped dose response | binding affinity to ER-β (in words) (human recombinant ER-β; HCl salt, similar to estradiol): high affinity | Ki (human recombinant ER-β; competition with 30 nM 3H-estradiol, room temperature, 1 hour, average of at least 3 experiments, read-out: Solid Phase ER Binding Ki, ER-β): 7.3 nM

CCN(CC)CCOc1ccc(-c2c(-c3ccccc3)c(=O)oc3ccccc23)cc1 [L-20, reference compound]
Ki (human recombinant ER-β; ER binding assay of Example 14, read-out: ER Binding Assay ER-β (Ki)): > 10000 nM
